Source: ChEMBL document CHEMBL1201862, “PubChem BioAssay data set” (2004)
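Dose response: 5 concentrations. Exposure: 48 h. Format: 96-well plates. Endpoint: linear interpolation; highest concentration if not reached. Abbreviation: GI50, concentration required for 50% inhibition of growth.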 Active and inactive are the calls of the source. No stated cut-off is given here; in the data, active = GI50 up to about 1.1 µM and inactive = higher.

How the values were obtained:
Assay in all cases: NCI-60 cell line screen, 48 h
[1] = tested on: SNB-75
[2] = tested on: RXF 393
[3] = tested on: HCT-116
[4] = tested on: MOLT-4
[5] = tested on: HOP-92
[6] = tested on: OVCAR-4
[7] = tested on: OVCAR-5
[8] = tested on: UO-31
[9] = tested on: A549
[10] = tested on: SW-620
[11] = tested on: U-251
[12] = tested on: NCI-H460
[13] = tested on: CCRF-CEM
[14] = tested on: SNB-19
[15] = tested on: SK-OV-3
[16] = tested on: BT-549
[17] = tested on: HT-29
[18] = tested on: MDA-N
[19] = tested on: M14
[20] = tested on: SN12C
[21] = tested on: NCI-H23
[22] = tested on: UACC-257
[23] = tested on: SF-295
[24] = tested on: K562
[25] = tested on: KM12
[26] = tested on: A498
[27] = tested on: SF-539
[28] = tested on: 786-0
[29] = tested on: DU-145
[30] = tested on: SK-MEL-5
[31] = tested on: HCT-15
[32] = tested on: SF-268
[33] = tested on: MDA-MB-231
[34] = tested on: ACHN
[35] = tested on: MCF7
[36] = tested on: HL-60
[37] = tested on: SK-MEL-28
[38] = tested on: MDA-MB-435
[39] = tested on: Malme-3M
[40] = tested on: T47D
[41] = tested on: NCI/ADR-RES
[42] = tested on: PC-3
[43] = tested on: EKVX
[44] = tested on: HOP-62
[45] = tested on: LOX IMVI
[46] = tested on: SK-MEL-2
[47] = tested on: RPMI-8226
[48] = tested on: SR
[49] = tested on: OVCAR-8
[50] = tested on: IGROV-1
[51] = tested on: COLO 205
[52] = tested on: NCI-H226
[53] = tested on: UACC-62
[54] = tested on: NCI-H522
[55] = tested on: TK-10
[56] = tested on: CAKI-1
[57] = tested on: OVCAR-3
[58] = tested on: Hs-578T
[59] = tested on: HCC 2998

Measured: GI50

C/C(=N\C1CCCCC1)c1ccccc1O
inactive: [1] 57.5 µM | [2] > 100 µM | [3] > 100 µM | [4] > 100 µM | [5] > 100 µM | [6] > 100 µM | [7] > 100 µM | [8] > 100 µM | [9] > 100 µM | [10] > 100 µM | [11] > 100 µM | [12] > 100 µM | [13] 54 µM | [14] > 100 µM | [15] > 100 µM | [16] > 100 µM | [17] > 100 µM | [18] > 100 µM | [19] > 100 µM | [20] > 100 µM | [21] > 100 µM | [22] > 100 µM | [23] > 100 µM | [24] > 100 µM | [25] > 100 µM | [26] > 100 µM | [27] > 100 µM | [28] > 100 µM | [29] > 100 µM | [30] > 100 µM | [32] > 100 µM | [33] > 100 µM | [34] > 100 µM | [35] > 100 µM | [36] 56.1 µM | [37] > 100 µM | [38] > 100 µM | [39] > 100 µM | [40] > 100 µM | [41] > 100 µM | [42] > 100 µM | [43] > 100 µM | [44] > 100 µM | [45] > 100 µM | [46] > 100 µM | [47] 87.5 µM | [48] > 100 µM | [49] > 100 µM | [50] > 100 µM | [51] > 100 µM | [52] > 100 µM | [53] > 100 µM | [54] 34.2 µM | [55] > 100 µM | [56] > 100 µM
> 100 µM: [31]

Cc1cc(S(=O)(=O)Nc2n[nH]c(Nc3ccccc3)n2)c(S)cc1Cl
inactive: [1] > 10 µM | [2] > 10 µM | [3] > 10 µM | [57] > 10 µM | [4] > 10 µM | [6] > 10 µM | [7] > 10 µM | [8] > 10 µM | [9] > 10 µM | [10] > 10 µM | [11] > 10 µM | [12] > 10 µM | [13] > 10 µM | [14] > 10 µM | [15] > 10 µM | [16] > 10 µM | [17] > 10 µM | [19] > 10 µM | [20] > 10 µM | [21] > 10 µM | [22] > 10 µM | [58] > 10 µM | [23] > 10 µM | [24] > 10 µM | [25] > 10 µM | [26] > 10 µM | [27] > 10 µM | [28] > 10 µM | [29] > 10 µM | [30] > 10 µM | [32] > 10 µM | [33] > 10 µM | [34] > 10 µM | [35] > 10 µM | [36] > 10 µM | [37] > 10 µM | [38] > 10 µM | [39] > 10 µM | [40] > 10 µM | [41] > 10 µM | [42] > 10 µM | [43] > 10 µM | [44] > 10 µM | [45] > 10 µM | [59] > 10 µM | [46] > 10 µM | [47] > 10 µM | [49] > 10 µM | [50] > 10 µM | [51] > 10 µM | [52] > 10 µM | [53] > 10 µM | [54] > 10 µM | [55] > 10 µM | [56] > 10 µM
> 10 µM: [31]
